Assay results reported in ChEMBL document CHEMBL1201862, “PubChem BioAssay data set” (2004).
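Growth conditions: 96-well plates. Treatment: test compound, 48 hours, 5 concentrations. Analysis: linear interpolation between bracketing concentrations; unreached endpoints set to highest concentration. Abbreviation: GI50, concentration required for 50% inhibition of growth.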 Activity calls are given as the source filed them. Rule as the data show it: active = GI50 up to about 1.1 µM and inactive = higher.

Columns and labels:
Experiment in all cases: NCI tumour cell line growth inhibition, 48 h
SK-MEL-28 = tested on: SK-MEL-28
HOP-62 = tested on: HOP-62
SNB-75 = tested on: SNB-75
OVCAR-8 = tested on: OVCAR-8
SK-OV-3 = tested on: SK-OV-3
OVCAR-4 = tested on: OVCAR-4
LOX IMVI = tested on: LOX IMVI
ACHN = tested on: ACHN
M14 = tested on: M14
CAKI-1 = tested on: CAKI-1
UO-31 = tested on: UO-31
MDA-MB-435 = tested on: MDA-MB-435
HCC 2998 = tested on: HCC 2998
U-251 = tested on: U-251
COLO 205 = tested on: COLO 205
RPMI-8226 = tested on: RPMI-8226
MCF7 = tested on: MCF7
786-0 = tested on: 786-0
SF-295 = tested on: SF-295
HL-60 = tested on: HL-60
MOLT-4 = tested on: MOLT-4
K562 = tested on: K562
UACC-257 = tested on: UACC-257
A549 = tested on: A549
SNB-19 = tested on: SNB-19
SK-MEL-2 = tested on: SK-MEL-2
OVCAR-3 = tested on: OVCAR-3
CCRF-CEM = tested on: CCRF-CEM
PC-3 = tested on: PC-3
TK-10 = tested on: TK-10
UACC-62 = tested on: UACC-62
Malme-3M = tested on: Malme-3M
SK-MEL-5 = tested on: SK-MEL-5
NCI-H522 = tested on: NCI-H522
OVCAR-5 = tested on: OVCAR-5
HT-29 = tested on: HT-29
RXF 393 = tested on: RXF 393
MDA-MB-231 = tested on: MDA-MB-231
SF-268 = tested on: SF-268
A498 = tested on: A498
EKVX = tested on: EKVX
SR = tested on: SR
NCI-H460 = tested on: NCI-H460
MDA-N = tested on: MDA-N
T47D = tested on: T47D
KM12 = tested on: KM12
DU-145 = tested on: DU-145
Hs-578T = tested on: Hs-578T
IGROV-1 = tested on: IGROV-1
SN12C = tested on: SN12C
NCI-H226 = tested on: NCI-H226
SF-539 = tested on: SF-539
HCT-116 = tested on: HCT-116
HOP-92 = tested on: HOP-92
SW-620 = tested on: SW-620
NCI-H23 = tested on: NCI-H23
HCT-15 = tested on: HCT-15
NCI/ADR-RES = tested on: NCI/ADR-RES

COC1(CC[C@@H](C)COC2OC(CO)C(O)C(O)C2O)OC2C[C@H]3[C@@H]4CC[C@H]5C[C@@H](OC6OC(CO)C(OC7OC(CO)C(O)C(O)C7O)C(O)C6OC6OC(C)C(O)C(O)C6O)[C@H](O)C[C@]5(C)[C@H]4CC[C@]3(C)C2[C@@H]1C (some centres not stated)
GI50 (SK-MEL-28): 1.88 µM (inactive)
GI50 (HOP-62): 1.89 µM (inactive)
GI50 (SNB-75): 1.77 µM (inactive)
GI50 (OVCAR-8): 1.99 µM (inactive)
GI50 (SK-OV-3): 1.87 µM (inactive)
GI50 (OVCAR-4): 1.97 µM (inactive)
GI50 (LOX IMVI): 1.79 µM (inactive)
GI50 (ACHN): 1.77 µM (inactive)
GI50 (M14): 1.84 µM (inactive)
GI50 (CAKI-1): 2.01 µM (inactive)
GI50 (UO-31): 1.79 µM (inactive)
GI50 (MDA-MB-435): 1.84 µM (inactive)
GI50 (HCC 2998): 1.7 µM (inactive)
GI50 (U-251): 1.87 µM (inactive)
GI50 (COLO 205): 2.57 µM (inactive)
GI50 (RPMI-8226): 2 µM (inactive)
GI50 (MCF7): 2.88 µM (inactive)
GI50 (786-0): 2.02 µM (inactive)
GI50 (SF-295): 1.8 µM (inactive)
GI50 (HL-60): 2.32 µM (inactive)
GI50 (MOLT-4): 2.58 µM (inactive)
GI50 (K562): 2.37 µM (inactive)
GI50 (UACC-257): 1.97 µM (inactive)
GI50 (A549): 1.92 µM (inactive)
GI50 (SNB-19): 1.87 µM (inactive)
GI50 (SK-MEL-2): 2.12 µM (inactive)
GI50 (OVCAR-3): 1.82 µM (inactive)
GI50 (CCRF-CEM): 1.88 µM (inactive)
GI50 (PC-3): 1.87 µM (inactive)
GI50 (TK-10): 2.12 µM (inactive)
GI50 (UACC-62): 1.85 µM (inactive)
GI50 (Malme-3M): 1.85 µM (inactive)
GI50 (SK-MEL-5): 1.79 µM (inactive)
GI50 (NCI-H522): 2.2 µM (inactive)
GI50 (OVCAR-5): 2.17 µM (inactive)
GI50 (HT-29): 2.19 µM (inactive)
GI50 (RXF 393): 2.04 µM (inactive)
GI50 (MDA-MB-231): 1.95 µM (inactive)
GI50 (SF-268): 2.07 µM (inactive)
GI50 (A498): 1.81 µM (inactive)
GI50 (EKVX): 2.14 µM (inactive)
GI50 (SR): 2.77 µM (inactive)
GI50 (NCI-H460): 3.08 µM (inactive)
GI50 (MDA-N): 2.19 µM (inactive)
GI50 (T47D): 3.04 µM (inactive)
GI50 (KM12): 2.12 µM (inactive)
GI50 (DU-145): 2.01 µM (inactive)
GI50 (Hs-578T): 2.52 µM (inactive)
GI50 (IGROV-1): 1.74 µM (inactive)
GI50 (SN12C): 1.86 µM (inactive)
GI50 (NCI-H226): 2.22 µM (inactive)
GI50 (SF-539): 1.83 µM (inactive)
GI50 (HCT-116): 1.86 µM (inactive)
GI50 (HOP-92): 4.24 µM (inactive)
GI50 (SW-620): 2.06 µM (inactive)

O=P(O)(O)C=C=C1CCCCC1
GI50 (SK-MEL-28): > 100 µM (inactive)
GI50 (HOP-62): > 100 µM (inactive)
GI50 (SNB-75): > 100 µM (inactive)
GI50 (NCI-H23): > 100 µM (inactive)
GI50 (OVCAR-8): > 100 µM (inactive)
GI50 (SK-OV-3): > 100 µM (inactive)
GI50 (OVCAR-4): > 100 µM (inactive)
GI50 (LOX IMVI): > 100 µM (inactive)
GI50 (ACHN): > 100 µM (inactive)
GI50 (M14): > 100 µM (inactive)
GI50 (CAKI-1): > 100 µM (inactive)
GI50 (MDA-MB-435): > 100 µM (inactive)
GI50 (HCC 2998): > 100 µM (inactive)
GI50 (U-251): > 100 µM (inactive)
GI50 (COLO 205): > 100 µM (inactive)
GI50 (MCF7): > 100 µM (inactive)
GI50 (786-0): > 100 µM (inactive)
GI50 (SF-295): > 100 µM (inactive)
GI50 (HL-60): 24.3 µM (inactive)
GI50 (K562): > 100 µM (inactive)
GI50 (UACC-257): > 100 µM (inactive)
GI50 (A549): > 100 µM (inactive)
GI50 (SNB-19): > 100 µM (inactive)
GI50 (SK-MEL-2): > 100 µM (inactive)
GI50 (HCT-15): > 100 µM
GI50 (OVCAR-3): > 100 µM (inactive)
GI50 (PC-3): > 100 µM (inactive)
GI50 (TK-10): > 100 µM (inactive)
GI50 (UACC-62): > 100 µM (inactive)
GI50 (Malme-3M): > 100 µM (inactive)
GI50 (SK-MEL-5): > 100 µM (inactive)
GI50 (NCI-H522): > 100 µM (inactive)
GI50 (OVCAR-5): > 100 µM (inactive)
GI50 (HT-29): > 100 µM (inactive)
GI50 (RXF 393): > 100 µM (inactive)
GI50 (NCI/ADR-RES): > 100 µM (inactive)
GI50 (SF-268): > 100 µM (inactive)
GI50 (A498): > 100 µM (inactive)
GI50 (EKVX): > 100 µM (inactive)
GI50 (SR): > 100 µM (inactive)
GI50 (NCI-H460): > 100 µM (inactive)
GI50 (MDA-N): > 100 µM (inactive)
GI50 (T47D): > 100 µM (inactive)
GI50 (KM12): > 100 µM (inactive)
GI50 (DU-145): > 100 µM (inactive)
GI50 (Hs-578T): > 100 µM (inactive)
GI50 (IGROV-1): > 100 µM (inactive)
GI50 (SN12C): > 100 µM (inactive)
GI50 (NCI-H226): > 100 µM (inactive)
GI50 (SF-539): > 100 µM (inactive)
GI50 (HCT-116): > 100 µM (inactive)
GI50 (HOP-92): > 100 µM (inactive)
GI50 (SW-620): > 100 µM (inactive)

Clc1ccccc1/C=C\C1(c2ccccc2)OCCO1
GI50 (SK-MEL-28): 21.1 µM (inactive)
GI50 (HOP-62): 22.3 µM (inactive)
GI50 (SNB-75): 19 µM (inactive)
GI50 (NCI-H23): 10.2 µM (inactive)
GI50 (OVCAR-8): 17.7 µM (inactive)
GI50 (SK-OV-3): 29.8 µM (inactive)
GI50 (OVCAR-4): 18 µM (inactive)
GI50 (LOX IMVI): 5.36 µM (inactive)
GI50 (ACHN): 17.3 µM (inactive)
GI50 (M14): > 100 µM (inactive)
GI50 (CAKI-1): 17.3 µM (inactive)
GI50 (UO-31): > 100 µM (inactive)
GI50 (MDA-MB-435): 15.6 µM (inactive)
GI50 (HCC 2998): 17.5 µM (inactive)
GI50 (U-251): 12.2 µM (inactive)
GI50 (COLO 205): 21.3 µM (inactive)
GI50 (RPMI-8226): 4.2 µM (inactive)
GI50 (MCF7): 2.77 µM (inactive)
GI50 (786-0): 16.5 µM (inactive)
GI50 (SF-295): 16.7 µM (inactive)
GI50 (HL-60): 24.8 µM (inactive)
GI50 (MOLT-4): 15.9 µM (inactive)
GI50 (K562): 16.7 µM (inactive)
GI50 (UACC-257): 16.7 µM (inactive)
GI50 (A549): > 100 µM (inactive)
GI50 (HCT-15): 12.6 µM
GI50 (OVCAR-3): 17.7 µM (inactive)
GI50 (CCRF-CEM): 19.7 µM (inactive)
GI50 (TK-10): 22.2 µM (inactive)
GI50 (UACC-62): 15.7 µM (inactive)
GI50 (SK-MEL-5): 19.8 µM (inactive)
GI50 (NCI-H522): 13.4 µM (inactive)
GI50 (OVCAR-5): 20 µM (inactive)
GI50 (HT-29): 15.8 µM (inactive)
GI50 (RXF 393): 19.1 µM (inactive)
GI50 (NCI/ADR-RES): 16.4 µM (inactive)
GI50 (MDA-MB-231): 12.7 µM (inactive)
GI50 (SF-268): 13.1 µM (inactive)
GI50 (A498): 20.7 µM (inactive)
GI50 (EKVX): 19.1 µM (inactive)
GI50 (SR): 3.58 µM (inactive)
GI50 (NCI-H460): 16.8 µM (inactive)
GI50 (MDA-N): 15.6 µM (inactive)
GI50 (T47D): 26.9 µM (inactive)
GI50 (KM12): 11 µM (inactive)
GI50 (DU-145): 16.7 µM (inactive)
GI50 (Hs-578T): 13.8 µM (inactive)
GI50 (IGROV-1): 14.2 µM (inactive)
GI50 (SN12C): 18.1 µM (inactive)
GI50 (NCI-H226): 27.1 µM (inactive)
GI50 (SF-539): 24.9 µM (inactive)
GI50 (HCT-116): 12.3 µM (inactive)
GI50 (HOP-92): 28.9 µM (inactive)
GI50 (SW-620): 16.1 µM (inactive)
